# According to ChEMBL document CHEMBL4190322, “Structure-based development of novel triazoles and related thiazolotriazoles as anticancer agents and Cdc25A/B phosphatase inhibitors. Synthesis, in vitro biological evaluation, molecular docking and in silico ADME-T studies” (Eur J Med Chem, 2017):
# Active and inactive are the calls of the source. The rule behind the calls is not given here.
# Legend:
# Format in all cases: functional
# [1] = tested on: NCI-H226; assay: Growth inhibition of human NCI-H226 cells at 10 uM after 48 hrs by SRB assay relative to control
# [2] = tested on: LOX IMVI; assay: Growth inhibition of human LOXIMVI cells at 10 uM after 48 hrs by SRB assay relative to control; conditions: read-out: GI
# [3] = tested on: MDA-MB-468; assay: Growth inhibition of human MDA-MB-468 cells at 10 uM after 48 hrs by SRB assay relative to control
# [4] = tested on: NCI-H322M; assay: Growth inhibition of human NCI-H322M cells at 10 uM after 48 hrs by SRB assay relative to control
# [5] = tested on: K562; assay: Growth inhibition of human K562 cells at 10 uM after 48 hrs by SRB assay relative to control; conditions: K562, 48 h, read-out: GI
# [6] = tested on: HL-60; assay: Growth inhibition of human HL60 cells at 10 uM after 48 hrs by SRB assay relative to control
# [7] = tested on: UO-31; assay: Growth inhibition of human UO31 cells at 10 uM after 48 hrs by SRB assay relative to control; conditions: UO-31, 48 h, read-out: GI
# [8] = tested on: NCI-H522; assay: Growth inhibition of human NCI-H522 cells at 10 uM after 48 hrs by SRB assay relative to control; conditions: NCI-H522, 48 h, read-out: GI
# [9] = tested on: Malme-3M; assay: Growth inhibition of human MALME-3M cells at 10 uM after 48 hrs by SRB assay relative to control
# [10] = tested on: MOLT-4; assay: Growth inhibition of human MOLT4 cells at 10 uM after 48 hrs by SRB assay relative to control; conditions: for inhibition of growth at 10 µM: MOLT-4, 48 h, read-out: GI
# [11] = tested on: A549; assay: Growth inhibition of human A549 cells at 10 uM after 48 hrs by SRB assay relative to control; conditions: for inhibition of growth at 10 µM: A549, 48 h, read-out: GI
# [12] = tested on: HOP-62; assay: Growth inhibition of human HOP62 cells at 10 uM after 48 hrs by SRB assay relative to control; conditions: HOP-62, 48 h, read-out: GI
# [13] = tested on: A498; assay: Growth inhibition of human A498 cells at 10 uM after 48 hrs by SRB assay relative to control; conditions: A498, 48 h, read-out: GI
# [14] = tested on: NCI/ADR-RES; assay: Growth inhibition of human NCI/ADR-RES cells at 10 uM after 48 hrs by SRB assay relative to control; conditions: read-out: GI
# [15] = tested on: SK-OV-3; assay: Growth inhibition of human SKOV3 cells at 10 uM after 48 hrs by SRB assay relative to control; conditions: SK-OV-3, 48 h, read-out: GI
# [16] = tested on: SNB-19; assay: Growth inhibition of human SNB19 cells at 10 uM after 48 hrs by SRB assay relative to control
# [17] = tested on: U-251; assay: Growth inhibition of human U251 cells at 10 uM after 48 hrs by SRB assay relative to control; conditions: U-251, 48 h, read-out: GI
# [18] = tested on: HOP-92; assay: Growth inhibition of human HOP92 cells at 10 uM after 48 hrs by SRB assay relative to control; conditions: HOP-92, 48 h, read-out: GI
# [19] = tested on: CCRF-CEM; assay: Growth inhibition of human CCRF-CEM cells at 10 uM after 48 hrs by SRB assay relative to control; conditions: read-out: GI
# [20] = tested on: SR; assay: Growth inhibition of human SR cells at 10 uM after 48 hrs by SRB assay relative to control; conditions: read-out: GI
# [21] = tested on: 786-0; assay: Growth inhibition of human 786-0 cells at 10 uM after 48 hrs by SRB assay relative to control
# [22] = tested on: OVCAR-8; assay: Growth inhibition of human OVCAR8 cells at 10 uM after 48 hrs by SRB assay relative to control
# [23] = tested on: SK-MEL-5; assay: Growth inhibition of human SK-MEL-5 cells at 10 uM after 48 hrs by SRB assay relative to control; conditions: for inhibition of growth at 10 µM: SK-MEL-5, 48 h, read-out: GI
# [24] = tested on: OVCAR-3; assay: Growth inhibition of human OVCAR3 cells at 10 uM after 48 hrs by SRB assay relative to control
# [25] = tested on: SNB-75; assay: Growth inhibition of human SNB75 cells at 10 uM after 48 hrs by SRB assay relative to control; conditions: SNB-75, 48 h, read-out: GI
# [26] = tested on: OVCAR-4; assay: Growth inhibition of human OVCAR4 cells at 10 uM after 48 hrs by SRB assay relative to control; conditions: for inhibition of growth at 10 µM: OVCAR-4, 48 h, read-out: GI
# [27] = tested on: PC-3; assay: Growth inhibition of human PC3 cells at 10 uM after 48 hrs by SRB assay relative to control; conditions: PC-3, 48 h, read-out: GI
# [28] = tested on: HT-29; assay: Growth inhibition of human HT-29 cells at 10 uM after 48 hrs by SRB assay relative to control
# [29] = tested on: UACC-257; assay: Growth inhibition of human UACC257 cells at 10 uM after 48 hrs by SRB assay relative to control
# [30] = tested on: NCI-H23; assay: Growth inhibition of human NCI-H23 cells at 10 uM after 48 hrs by SRB assay relative to control; conditions: NCI-H23, 48 h, read-out: GI
# [31] = tested on: MCF7; assay: Growth inhibition of human MCF7 cells at 10 uM after 48 hrs by SRB assay relative to control; conditions: for inhibition of growth at 10 µM: MCF7, 48 h, read-out: GI
# [32] = tested on: SK-MEL-2; assay: Growth inhibition of human SK-MEL-2 cells at 10 uM after 48 hrs by SRB assay relative to control; conditions: for inhibition of growth at 10 µM: SK-MEL-2, 48 h, read-out: GI
# [33] = tested on: RXF 393; assay: Growth inhibition of human RXF393 cells at 10 uM after 48 hrs by SRB assay relative to control
# [34] = tested on: UACC-62; assay: Growth inhibition of human UACC62 cells at 10 uM after 48 hrs by SRB assay relative to control
# [35] = tested on: CAKI-1; assay: Growth inhibition of human Caki1 cells at 10 uM after 48 hrs by SRB assay relative to control; conditions: CAKI-1, 48 h, read-out: GI
# [36] = tested on: Hs-578T; assay: Growth inhibition of human Hs 578T cells at 10 uM after 48 hrs by SRB assay relative to control
# [37] = tested on: SF-268; assay: Growth inhibition of human SF268 cells at 10 uM after 48 hrs by SRB assay relative to control
# [38] = tested on: HCT-116; assay: Growth inhibition of human HCT116 cells at 10 uM after 48 hrs by SRB assay relative to control; conditions: for inhibition of growth at 10 µM: HCT-116, 48 h, read-out: GI
# [39] = tested on: RPMI-8226; assay: Growth inhibition of human RPMI8226 cells at 10 uM after 48 hrs by SRB assay relative to control; conditions: RPMI-8226, 48 h, read-out: GI
# [40] = tested on: KM12; assay: Growth inhibition of human KM12 cells at 10 uM after 48 hrs by SRB assay relative to control; conditions: KM12, 48 h, read-out: GI
Structure (SMILES),inhibition of growth at 10 µM [2],inhibition of growth at 10 µM [5],growth inhibition (GI) [6],inhibition of growth at 10 µM [7],inhibition of growth at 10 µM [8],growth inhibition (GI) [9],inhibition of growth at 10 µM [12],inhibition of growth at 10 µM [13],inhibition of growth at 10 µM [14],inhibition of growth at 10 µM [15],inhibition of growth at 10 µM [17],inhibition of growth at 10 µM [18],inhibition of growth at 10 µM [19],inhibition of growth at 10 µM [20],growth inhibition (GI) [21],growth inhibition (GI) [22],inhibition of growth at 10 µM [25],inhibition of growth at 10 µM [27],growth inhibition (GI) [28],growth inhibition (GI) [29],also measured
COc1ccc(Cc2nnc3sc(SCC(=O)Nc4ccc(Cl)cc4)nn23)cc1,8%,2.76%,inactive,10.2%,8.35%,inactive,4.5%,19.6%,2.54%,1.64%,4.46%,20.3%,9.02%,7.04%,inactive,inactive,20.2%,14.8%,inactive,inactive,"growth inhibition (GI) [1]: inactive; growth inhibition (GI) [3]: inactive; growth inhibition (GI) [4]: inactive; growth inhibition (GI) [10]: inactive; growth inhibition (GI) [11]: inactive; inhibition of growth at 10 µM ([16]; SNB-19, 48 h, read-out: GI): 10.4%; growth inhibition (GI) [23]: inactive; growth inhibition (GI) [24]: inactive; inhibition of growth at 10 µM [26]: 5.49%; inhibition of growth at 10 µM [30]: 9.4%; inhibition of growth at 10 µM [31]: 10%; growth inhibition (GI) [32]: inactive; growth inhibition (GI) [33]: inactive; growth inhibition (GI) [34]: inactive; inhibition of growth at 10 µM [35]: 5.77%; growth inhibition (GI) [36]: inactive; growth inhibition (GI) [37]: inactive; growth inhibition (GI) [38]: inactive; inhibition of growth at 10 µM [39]: 7.47%; inhibition of growth at 10 µM [40]: 5.75%"
COc1ccc(Cc2nnc3sc(SCC(=O)c4ccc(Cl)cc4)nn23)cc1,9%,10%,inactive,22.3%,17.7%,inactive,7.5%,35.4%,5.12%,11.2%,8.78%,32%,12.2%,13.2%,inactive,inactive,21.8%,25.8%,inactive,inactive,"inhibition of growth at 10 µM ([1]; NCI-H226, 48 h, read-out: GI): 2%; growth inhibition (GI) [3]: inactive; inhibition of growth at 10 µM ([4]; read-out: GI): 6.27%; inhibition of growth at 10 µM [10]: 7.83%; inhibition of growth at 10 µM [11]: 1.3%; growth inhibition (GI) [16]: inactive; inhibition of growth at 10 µM [23]: 2.05%; inhibition of growth at 10 µM ([24]; OVCAR-3, 48 h, read-out: GI): 3.88%; inhibition of growth at 10 µM [26]: 2.26%; inhibition of growth at 10 µM [30]: 10.7%; inhibition of growth at 10 µM [31]: 6.24%; inhibition of growth at 10 µM [32]: 10%; growth inhibition (GI) [33]: inactive; inhibition of growth at 10 µM ([34]; UACC-62, 48 h, read-out: GI): 1.72%; inhibition of growth at 10 µM [35]: 17.5%; inhibition of growth at 10 µM ([36]; read-out: GI): 2.07%; inhibition of growth at 10 µM ([37]; SF-268, 48 h, read-out: GI): 5%; inhibition of growth at 10 µM [38]: 4%; inhibition of growth at 10 µM [39]: 8.67%; inhibition of growth at 10 µM [40]: 5.4%"
CCSc1nnc(Cc2ccc(OC)cc2)n1-c1ccc(C)cc1,3.04%,20.2%,inactive,14.2%,14.6%,inactive,6%,6.56%,10.1%,6.45%,1.35%,31.6%,16.7%,8.17%,inactive,inactive,4%,14.3%,inactive,inactive,"growth inhibition (GI) [1]: inactive; inhibition of growth at 10 µM ([3]; MDA-MB-468, 48 h, read-out: GI): 2.5%; growth inhibition (GI) [4]: inactive; inhibition of growth at 10 µM [10]: 17.7%; inhibition of growth at 10 µM [11]: 3.38%; growth inhibition (GI) [16]: inactive; inhibition of growth at 10 µM [23]: 2%; growth inhibition (GI) [24]: inactive; growth inhibition (GI) [26]: inactive; inhibition of growth at 10 µM [30]: 4.3%; growth inhibition (GI) [31]: inactive; inhibition of growth at 10 µM [32]: 1.9%; growth inhibition (GI) [33]: inactive; growth inhibition (GI) [34]: inactive; inhibition of growth at 10 µM [35]: 4.82%; growth inhibition (GI) [36]: inactive; growth inhibition (GI) [37]: inactive; inhibition of growth at 10 µM [38]: 4.52%; inhibition of growth at 10 µM [39]: 13.5%; inhibition of growth at 10 µM [40]: 6.34%"
